In ChEMBL document CHEMBL1201862, “PubChem BioAssay data set” (2004):
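Test compounds were applied to cells in 96-well plates for 48 hours at 5 doses. GI50 is the concentration that inhibits growth by half.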 Activity calls are given as the source filed them. Cut-off read from the data, not from the text of the source: active = GI50 up to about 1.1 µM and inactive = higher.

What was measured:
Assay in all cases: DTP human tumour cell line panel, 48 h
Hs-578T = system: Hs-578T
NCI/ADR-RES = system: NCI/ADR-RES
HCC 2998 = system: HCC 2998
SK-MEL-2 = system: SK-MEL-2
ACHN = system: ACHN
MOLT-4 = system: MOLT-4
NCI-H226 = system: NCI-H226
MCF7 = system: MCF7
UO-31 = system: UO-31
A498 = system: A498
K562 = system: K562
SN12C = system: SN12C
OVCAR-4 = system: OVCAR-4
RXF 393 = system: RXF 393
SNB-19 = system: SNB-19
HCT-15 = system: HCT-15
786-0 = system: 786-0
HL-60 = system: HL-60
CAKI-1 = system: CAKI-1
SF-295 = system: SF-295
EKVX = system: EKVX
SK-MEL-28 = system: SK-MEL-28
OVCAR-8 = system: OVCAR-8
HOP-92 = system: HOP-92
MDA-N = system: MDA-N
Malme-3M = system: Malme-3M
HT-29 = system: HT-29
SNB-75 = system: SNB-75
IGROV-1 = system: IGROV-1
HOP-62 = system: HOP-62
SK-OV-3 = system: SK-OV-3
CCRF-CEM = system: CCRF-CEM
OVCAR-5 = system: OVCAR-5
UACC-257 = system: UACC-257
M14 = system: M14
MDA-MB-435 = system: MDA-MB-435
SF-268 = system: SF-268
U-251 = system: U-251
SW-620 = system: SW-620
LOX IMVI = system: LOX IMVI
NCI-H522 = system: NCI-H522
OVCAR-3 = system: OVCAR-3
DU-145 = system: DU-145
SK-MEL-5 = system: SK-MEL-5
COLO 205 = system: COLO 205
A549 = system: A549
MDA-MB-231 = system: MDA-MB-231
RPMI-8226 = system: RPMI-8226
HCT-116 = system: HCT-116
KM12 = system: KM12
T47D = system: T47D
UACC-62 = system: UACC-62
NCI-H23 = system: NCI-H23
NCI-H460 = system: NCI-H460
BT-549 = system: BT-549
PC-3 = system: PC-3
TK-10 = system: TK-10

## O=C1Nc2ccc(Br)cc2/C1=N/S(=O)(=O)O
Hs-578T
  GI50: > 100 µM (inactive)
NCI/ADR-RES
  GI50: 29.4 µM (inactive)
HCC 2998
  GI50: 51.3 µM (inactive)
SK-MEL-2
  GI50: 6.61 µM (inactive)
ACHN
  GI50: 45.9 µM (inactive)
MOLT-4
  GI50: 22 µM (inactive)
NCI-H226
  GI50: 28.4 µM (inactive)
MCF7
  GI50: 17.8 µM (inactive)
UO-31
  GI50: 35 µM (inactive)
A498
  GI50: > 100 µM (inactive)
K562
  GI50: 17.3 µM (inactive)
SN12C
  GI50: 18.4 µM (inactive)
OVCAR-4
  GI50: 19 µM (inactive)
RXF 393
  GI50: 48.4 µM (inactive)
SNB-19
  GI50: > 100 µM (inactive)
HCT-15
  GI50: 21.9 µM
786-0
  GI50: 25.4 µM (inactive)
HL-60
  GI50: 12.9 µM (inactive)
CAKI-1
  GI50: 35.6 µM (inactive)
SF-295
  GI50: 33.7 µM (inactive)
EKVX
  GI50: 29.2 µM (inactive)
SK-MEL-28
  GI50: 30.9 µM (inactive)
OVCAR-8
  GI50: 24.4 µM (inactive)
HOP-92
  GI50: > 100 µM (inactive)
MDA-N
  GI50: 11.4 µM (inactive)
Malme-3M
  GI50: 26.1 µM (inactive)
HT-29
  GI50: 40.1 µM (inactive)
SNB-75
  GI50: 24.5 µM (inactive)
IGROV-1
  GI50: 55.2 µM (inactive)
HOP-62
  GI50: 60.5 µM (inactive)
SK-OV-3
  GI50: 79.8 µM (inactive)
CCRF-CEM
  GI50: 6.85 µM (inactive)
OVCAR-5
  GI50: 27.6 µM (inactive)
UACC-257
  GI50: 15.9 µM (inactive)
M14
  GI50: 38.5 µM (inactive)
MDA-MB-435
  GI50: 6.38 µM (inactive)
SF-268
  GI50: 62.8 µM (inactive)
U-251
  GI50: 13.6 µM (inactive)
SW-620
  GI50: 18.2 µM (inactive)
LOX IMVI
  GI50: 10 µM (inactive)
NCI-H522
  GI50: 31.3 µM (inactive)
OVCAR-3
  GI50: 40.7 µM (inactive)
DU-145
  GI50: 57.1 µM (inactive)
SK-MEL-5
  GI50: 16.1 µM (inactive)
COLO 205
  GI50: 46.8 µM (inactive)
A549
  GI50: 26.1 µM (inactive)
MDA-MB-231
  GI50: 16.3 µM (inactive)
RPMI-8226
  GI50: 14.1 µM (inactive)
HCT-116
  GI50: 10.6 µM (inactive)
KM12
  GI50: 28.4 µM (inactive)
T47D
  GI50: 29 µM (inactive)
UACC-62
  GI50: 18.7 µM (inactive)
NCI-H23
  GI50: 19.6 µM (inactive)
NCI-H460
  GI50: 29 µM (inactive)
BT-549
  GI50: 34.8 µM (inactive)
PC-3
  GI50: 13.3 µM (inactive)
TK-10
  GI50: 14.5 µM (inactive)
